Experimental data taken from paper PMC10426190 (Breast Cancer Research : BCR, 2023).
Like-named read-outs stand apart in the source and are kept apart here.

Legend:
[1] = test system: ER + breast cancer cell lines; assay: Proliferation assay across ER-positive cell panel; assay type: cell-based, human; details: 7 days
Experimental: (§1) Trypsinized cells were dispensed into 384-well plates in culture media and after overnight incubation cells were treated with compounds for 7 days. Cell viability was assessed using CellTiter-Glo (Promega) according to the manufacturer’s protocol and relative luminescence units (RLU) were measured using an Envision Multilabel Reader (Perkin Elmer). […] IC50 and Imax were analyzed with IDBS XLfit.
MCF7 cells were seeded in a 384-well plate and linear-dilution compounds were administrated in duplicate for each treatment. After incubation for 24 h, Cells in the assay pate were treated as described in methods. ERα levels were quantified by immunofluorescence assay. […] Data are given as mean ± SEM. b The maximal ERα degradation across an ER-positive cell panel was evaluated in an In-cell Western assay. Cells were dispended into 96-well plates and incubated for 24 h with compounds (100 nM) treatment. […] Cells were seeded in 384-well plates and treated with linear-dilution compounds for 7 days of incubation. Cell viability was assessed using CellTiter-Glo. Cell growth inhibition is presented as a percentage of CellTiterGlo activity relative to the vehicle control. […] WT (e) and ER. Y537S cells (f). […] Then cells in each well were collected and the targeting proteins in lysate supernatant were detected by WB

[2] = test system: MCF-7 WT cells; assay: Viability assay (CellTiter-Glo, 7 days), MCF-7 WT; assay type: cell-based, human
Experimental: as §1
(§2) Statistical and graphical presentations were performed using IDBS XLfit and GraphPad Prism 9. For cell proliferation assays, the IC50 was calculated by fitting a dose–response curve using a nonlinear regression model with a log(inhibitor) vs response curve fit. […] P-values < 0.05 were considered statistically significant.

[3] = test system: MCF-7 Y537S cells; assay: Viability assay (CellTiter-Glo, 7 days), MCF-7 Y537S; assay type: cell-based, human
Experimental: as §1, §2

[4] = test system: MCF7 ESR1 D538G cells; assay: Viability assay (CellTiter-Glo, 7 days), MCF7 D538G; assay type: cell-based, human; details: MCF-8 D538G
Experimental: as §1, §2

[5] = test system: MCF-7 subcutaneous tumors; assay: MCF-7 subcutaneous xenograft mouse model; assay type: in vivo; details: MCF7 sc, 250 mg/kg subcutaneous once a week
Experimental: Female Balb/c nude mice were used for MCF-7 and T47D tumor subcutaneous xenograft studies. At least one day before tumor cell implantation, estrogen pellets (0.18 mg, 17β-Estradiol, 60-day release, Innovative Research of America, Sarasota, FL, USA) were implanted subcutaneously. Each mouse was subcutaneously injected with 1 × 10^7 MCF-7 (ECACC) or T47D cells in the right flank, and tumor growth was monitored. The long diameter (a) and the short diameter (b) of the tumor were measured using a caliper, and the tumor volume was calculated using the following formula: V = 0.5 × a × b^2. […] Tumor volumes were evaluated twice per week. Treatment tolerability was assessed by body weight measurements and frequent observation for clinical signs of treatment-related adverse effects.
as §2

[6] = test system: advanced breast cancer; details: cited from earlier work; for PFS: second-line
[7] = test system: advanced HR + /HER2- breast cancer; details: cited from earlier work
[8] = biological target: T1, ERα (Homo sapiens, UniProt P03372); assay: ERα degradation assay, In-Cell Western, MCF-7 WT; assay type: cell-based; design: MCF-7 wild type and Y537S mutant cells were seeded at a density of 5000 cells per well; host or cells: MCF-7; details: 24 h
T1 sequence (P03372 1-595): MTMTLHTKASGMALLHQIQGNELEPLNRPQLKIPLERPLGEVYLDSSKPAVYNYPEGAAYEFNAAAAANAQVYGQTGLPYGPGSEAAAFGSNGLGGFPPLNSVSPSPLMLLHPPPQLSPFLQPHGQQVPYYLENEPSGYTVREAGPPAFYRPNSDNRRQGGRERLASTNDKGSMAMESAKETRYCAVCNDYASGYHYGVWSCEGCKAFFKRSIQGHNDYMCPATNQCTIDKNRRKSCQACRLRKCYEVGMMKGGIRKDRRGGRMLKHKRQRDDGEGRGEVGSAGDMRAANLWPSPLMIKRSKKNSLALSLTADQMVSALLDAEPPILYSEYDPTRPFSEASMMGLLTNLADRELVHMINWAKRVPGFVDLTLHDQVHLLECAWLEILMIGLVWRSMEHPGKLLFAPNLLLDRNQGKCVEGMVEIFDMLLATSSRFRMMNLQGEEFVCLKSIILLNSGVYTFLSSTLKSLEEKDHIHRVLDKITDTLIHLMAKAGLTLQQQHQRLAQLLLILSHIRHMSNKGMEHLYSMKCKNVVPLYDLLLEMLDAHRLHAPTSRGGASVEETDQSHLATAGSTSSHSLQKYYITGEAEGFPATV
Experimental: MCF-7 wild type and Y537S mutant cells were seeded at a density of 5000 cells per well into flat clear bottom tissue cultured-treated 384-well plates (Greiner) in culture media and after overnight incubation cells were treated with compounds for 24 h. Then plates were fixed with 4% formaldehyde, permeabilized with ice-cold methanol, and blocked with Odyssey Blocking Buffer (LI-COR). The fixed cells were incubated with rabbit anti- ERα antibody (CST#8644S) and mouse anti-GAPDH antibody (Abcam #ab8245), washed and stained with IRDye 800 Goat anti-Rabbit IgG (Licor#926-32211) and IRDye 680 Goat anti-Mouse IgG (Licor#926-68070). ERα levels were quantitated using Sapphire RGBNIR (Azure), the acumen eX3 imaging system. […] IC50 and Emax were analyzed with IDBS XLfit.
MCF7 cells were seeded in a 384-well plate and linear-dilution compounds were administrated in duplicate for each treatment. After incubation for 24 h, Cells in the assay pate were treated as described in methods. ERα levels were quantified by immunofluorescence assay. […] Cells were dispended into 96-well plates and incubated for 24 h with compounds (100 nM) treatment. […] Cells were seeded in 384-well plates and treated with linear-dilution compounds for 7 days of incubation. Cell viability was assessed using CellTiter-Glo. Cell growth inhibition is presented as a percentage of CellTiterGlo activity relative to the vehicle control. […] Then cells in each well were collected and the targeting proteins in lysate supernatant were detected by WB
Cells were seeded at a density of 5,000 cells per well into 384-well plates and treated with linear-titration compounds in duplicate for 24 hours. ERα levels were quantified by immunofluorescence assay as described in the method. The detection signals were captured by Odyssey.

Structure (SMILES)	anti-proliferation potency in ER + cell panel [1]	Viability assay Emax [% Ful.] [2]	Viability assay Emax [% Veh.] [2]	IC50 ([2]; Homo sapiens, MCF7, 168 h)	Viability assay Emax [% Ful.] [3]	Viability assay Emax [% Veh.] [3]	IC50 ([3]; Homo sapiens, MCF7, 168 h)	IC50 ([4]; Homo sapiens, MCF7, 168 h)	Viability assay Emax [% Ful.] [4]	Viability assay Emax [% Veh.] [4]	TGI [5]	OS ([6]; 250 mg dose regimen ref 16)	OS ([6]; Fulvestrant HD 500 mg ref 16)	PFS ([6]; higher value of 6.5 vs. 5.5 (Fulvestrant HD 500 mg) ref 16)	PFS ([6]; lower value of 6.5 vs. 5.5 (250 mg dose regimen) ref 16)	median OS [7]	PFS ([7]; progressed on prior ET ref 45)	ERα degradation assay Dmax [% Ful.] [8]	ERα degradation assay Dmax [% Veh.] [8]
CC/C(=C(\c1ccc(O)cc1)c1ccc(OCCN(C)C)cc1)c1ccccc1 [4-OH-tamoxifen]	less potent than all tested SERDs	–	–	–	–	–	–	–	–	–	–	–	–	–	–	–	–	–	–
C[C@]12CC[C@@H]3c4ccc(O)cc4C[C@@H](CCCCCCCCC[S+]([O-])CCCC(F)(F)C(F)(F)F)[C@H]3[C@@H]1CC[C@@H]2O (stereo partly shown) [Fulvestrant]	–	97.88 % Ful.	49.60 % Veh.	0.4 nM	95.49 % Ful.	65.05 % Veh.	16.3 nM	11.1 nM	106.1 % Ful.	68.57 % Veh.	28.84%	22.3 months	26.4 months	6.5 months	5.5 months	29.7 months	4.6 months	97.69 % Ful.	56.04 % Veh.
